Assay results taken from paper PMC3804415 (Bioorganic & medicinal chemistry, 2013).

Target: T1, human QR2 (Homo sapiens, UniProt P16083)
T1 sequence (P16083 1-231): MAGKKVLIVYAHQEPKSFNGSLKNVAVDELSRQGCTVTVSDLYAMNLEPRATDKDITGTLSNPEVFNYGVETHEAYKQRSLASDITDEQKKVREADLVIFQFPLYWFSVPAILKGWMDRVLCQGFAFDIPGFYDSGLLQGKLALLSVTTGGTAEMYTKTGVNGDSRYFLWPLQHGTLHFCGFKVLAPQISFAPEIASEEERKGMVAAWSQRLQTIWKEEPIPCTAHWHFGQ
Assay: Steady-state kinetic assay of QR2 inhibition
Assay type: biochemical
Details: for inhibition at 100 µM: read-out: average percent inhibition of QR2; for average percent inhibition of QR2: at 100 μM inhibitor

Compound	inhibition at 100 µM	average percent inhibition of QR2
CC(C)Oc1cc(/C=C(\C#N)c2ccc(O)cc2)cc(OC(C)C)c1 [Analogue 4a, (Z)-3-(3,5-diisopropoxyphenyl)-2-(4-hydroxyphenyl)acrylonitrile]	≤ 20%	
COc1ccc(/C(C#N)=C/c2cc(OC(C)C)cc(OC(C)C)c2)cc1 [Analogue 4c, (Z)-3-(3,5-diisopropoxyphenyl)-2-(4-methoxyphenyl)acrylonitrile]	≤ 20%	
CN(C)c1ccc(NC(=O)c2ccc(O)cc2)cc1 [Analogue 8f, N-(4-(dimethylamino)phenyl)-4-hydroxybenzamide]		eliminates inhibition of QR2
CN(C)c1ccc(C(=O)Nc2cc(O)cc(O)c2)cc1 [Analogue 8k, N-(3,5-dihydroxyphenyl)-4-(dimethylamino)benzamide]		eliminates inhibition of QR2
COc1cc(OC)cc(C(=O)Nc2ccc3ccccc3c2)c1 [Analogue 8p, 3,5-dimethoxy-N-(naphthalen-2-yl)benzamide]		no inhibition of QR2
